Laboratory results reported in PubChem BioAssay (NCI).
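Where inhibition never reached the appropriate level, the endpoint shown equals the highest concentration tested. Otherwise, values were interpolated linearly from a five-concentration, 48-hour dose response in 96-well plates. GI50 = concentration required for 50% inhibition of growth. TGI marks complete inhibition of growth.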

Key:
Assay in all cases: NCI-60 cell line screen, 48 h
RXF 393 renal = test system: RXF 393 renal
K-562 leukemia = test system: K-562 leukemia
ACHN renal = test system: ACHN renal
NCI-H460 lung = test system: NCI-H460 lung
TK-10 renal = test system: TK-10 renal
OVCAR-5 ovarian = test system: OVCAR-5 ovarian
SK-MEL-28 melanoma = test system: SK-MEL-28 melanoma
COLO 205 colon = test system: COLO 205 colon
SF-295 CNS = test system: SF-295 CNS
SNB-19 CNS = test system: SNB-19 CNS
NCI-H522 lung = test system: NCI-H522 lung
HCT-116 colon = test system: HCT-116 colon
SNB-75 CNS = test system: SNB-75 CNS
MCF7 breast = test system: MCF7 breast
NCI-H23 lung = test system: NCI-H23 lung
T-47D breast = test system: T-47D breast
EKVX NSCLC = test system: EKVX NSCLC
SF-268 CNS = test system: SF-268 CNS
NCI-H226 lung = test system: NCI-H226 lung
HCC-2998 colon = test system: HCC-2998 colon
SN12C renal = test system: SN12C renal
KM12 colon = test system: KM12 colon
SK-OV-3 ovarian = test system: SK-OV-3 ovarian
SF-539 CNS = test system: SF-539 CNS
MOLT-4 leukemia = test system: MOLT-4 leukemia
U251 CNS = test system: U251 CNS
HT29 colon = test system: HT29 colon
OVCAR-8 ovarian = test system: OVCAR-8 ovarian
M14 melanoma = test system: M14 melanoma
CAKI-1 renal = test system: CAKI-1 renal
SR leukemia = test system: SR leukemia
HOP-62 NSCLC = test system: HOP-62 NSCLC
HS 578T breast = test system: HS 578T breast
A549 NSCLC = test system: A549 NSCLC
OVCAR-3 ovarian = test system: OVCAR-3 ovarian
HCT-15 colon = test system: HCT-15 colon
SW-620 colon = test system: SW-620 colon
UO-31 renal = test system: UO-31 renal
MALME-3M melanoma = test system: MALME-3M melanoma
SK-MEL-5 melanoma = test system: SK-MEL-5 melanoma
LOX IMVI melanoma = test system: LOX IMVI melanoma
HL-60(TB) leukemia = test system: HL-60(TB) leukemia
PC-3 prostate = test system: PC-3 prostate
CCRF-CEM leukemia = test system: CCRF-CEM leukemia
IGROV1 ovarian = test system: IGROV1 ovarian
A498 renal = test system: A498 renal
RPMI-8226 leukemia = test system: RPMI-8226 leukemia
MDA-MB-231 breast = test system: MDA-MB-231 breast
SK-MEL-2 melanoma = test system: SK-MEL-2 melanoma
MDA-MB-435 = test system: MDA-MB-435
NCI/ADR-RES ovarian = test system: NCI/ADR-RES ovarian
OVCAR-4 ovarian = test system: OVCAR-4 ovarian
UACC-62 melanoma = test system: UACC-62 melanoma
DU-145 prostate = test system: DU-145 prostate
786-0 renal = test system: 786-0 renal
HOP-92 NSCLC = test system: HOP-92 NSCLC
BT-549 breast = test system: BT-549 breast
UACC-257 melanoma = test system: UACC-257 melanoma

Question: How did the TGI (RXF 393 renal) turn out when CCN(CCO)C(=O)C1(c2ccccc2)CCCCC1 was run?
Answer: > 10 µM

Question: What about the TGI (K-562 leukemia) of the same compound?
Answer: > 10 µM

Question: What about the TGI (ACHN renal) of the same compound?
Answer: > 10 µM

Question: And the TGI (NCI-H460 lung)?
Answer: > 10 µM

Question: What about the TGI (TK-10 renal) of the same compound?
Answer: > 10 µM

Question: And the TGI (OVCAR-5 ovarian)?
Answer: > 10 µM

Question: What about the TGI (SK-MEL-28 melanoma) of the same compound?
Answer: > 10 µM

Question: What about the TGI (COLO 205 colon) of the same compound?
Answer: > 10 µM

Question: And the TGI (SF-295 CNS)?
Answer: > 10 µM

Question: And the TGI (SNB-19 CNS)?
Answer: > 10 µM

Question: What about the TGI (NCI-H522 lung) of the same compound?
Answer: > 10 µM

Question: What about the TGI (HCT-116 colon) of the same compound?
Answer: > 10 µM

Question: And the TGI (SNB-75 CNS)?
Answer: > 10 µM

Question: And the TGI (MCF7 breast)?
Answer: > 10 µM

Question: And the TGI (NCI-H23 lung)?
Answer: > 10 µM

Question: And the TGI (T-47D breast)?
Answer: > 10 µM

Question: And the TGI (EKVX NSCLC)?
Answer: > 10 µM

Question: What about the TGI (SF-268 CNS) of the same compound?
Answer: > 10 µM

Question: What about the TGI (NCI-H226 lung) of the same compound?
Answer: > 10 µM

Question: What about the TGI (HCC-2998 colon) of the same compound?
Answer: > 10 µM

Question: And the TGI (SN12C renal)?
Answer: > 10 µM

Question: And the TGI (KM12 colon)?
Answer: > 10 µM

Question: And the TGI (SK-OV-3 ovarian)?
Answer: > 10 µM

Question: What about the TGI (SF-539 CNS) of the same compound?
Answer: > 10 µM

Question: And the TGI (MOLT-4 leukemia)?
Answer: > 10 µM

Question: What about the TGI (U251 CNS) of the same compound?
Answer: > 10 µM

Question: And the TGI (HT29 colon)?
Answer: > 10 µM

Question: And the TGI (OVCAR-8 ovarian)?
Answer: > 10 µM

Question: What about the TGI (M14 melanoma) of the same compound?
Answer: > 10 µM

Question: And the TGI (CAKI-1 renal)?
Answer: > 10 µM

Question: And the TGI (SR leukemia)?
Answer: > 10 µM

Question: What about the TGI (HOP-62 NSCLC) of the same compound?
Answer: > 10 µM

Question: What about the TGI (HS 578T breast) of the same compound?
Answer: > 10 µM

Question: What about the TGI (A549 NSCLC) of the same compound?
Answer: > 10 µM

Question: What about the TGI (OVCAR-3 ovarian) of the same compound?
Answer: > 10 µM

Question: What about the TGI (HCT-15 colon) of the same compound?
Answer: > 10 µM

Question: What about the TGI (SW-620 colon) of the same compound?
Answer: > 10 µM

Question: And the TGI (UO-31 renal)?
Answer: > 10 µM

Question: What about the TGI (MALME-3M melanoma) of the same compound?
Answer: > 10 µM

Question: What about the TGI (SK-MEL-5 melanoma) of the same compound?
Answer: > 10 µM

Question: And the TGI (LOX IMVI melanoma)?
Answer: > 10 µM

Question: And the TGI (HL-60(TB) leukemia)?
Answer: > 10 µM

Question: And the TGI (PC-3 prostate)?
Answer: > 10 µM

Question: And the TGI (CCRF-CEM leukemia)?
Answer: > 10 µM

Question: And the TGI (IGROV1 ovarian)?
Answer: > 10 µM

Question: What about the TGI (A498 renal) of the same compound?
Answer: > 10 µM

Question: What about the TGI (RPMI-8226 leukemia) of the same compound?
Answer: > 10 µM

Question: And the TGI (MDA-MB-231 breast)?
Answer: > 10 µM

Question: What about the TGI (SK-MEL-2 melanoma) of the same compound?
Answer: > 10 µM

Question: What about the TGI (MDA-MB-435) of the same compound?
Answer: > 10 µM

Question: What about the TGI (NCI/ADR-RES ovarian) of the same compound?
Answer: > 10 µM

Question: And the TGI (OVCAR-4 ovarian)?
Answer: > 10 µM

Question: And the TGI (UACC-62 melanoma)?
Answer: > 10 µM

Question: What about the TGI (DU-145 prostate) of the same compound?
Answer: > 10 µM

Question: Which results are given for C=C(C[C@](O)(C(=O)/C=C/c1ccc(Cl)cc1)C(=O)OC)c1ccccc1?
Answer: GI50 (RXF 393 renal): 1.66 µM; TGI (RXF 393 renal): 3.31 µM; GI50 (K-562 leukemia): 2.12 µM; TGI (K-562 leukemia): 8.8 µM; GI50 (ACHN renal): 2.17 µM; TGI (ACHN renal): 5.2 µM; GI50 (NCI-H460 lung): 2.44 µM; TGI (NCI-H460 lung): 6.31 µM; GI50 (TK-10 renal): 2.33 µM; TGI (TK-10 renal): 6.21 µM; GI50 (OVCAR-5 ovarian): 3.48 µM; TGI (OVCAR-5 ovarian): 13.1 µM; GI50 (SK-MEL-28 melanoma): 2.04 µM; TGI (SK-MEL-28 melanoma): 4.98 µM; GI50 (COLO 205 colon): 2 µM; TGI (COLO 205 colon): 4.36 µM; GI50 (SF-295 CNS): 7.96 µM; TGI (SF-295 CNS): 20.7 µM; GI50 (SNB-19 CNS): 3.69 µM; TGI (SNB-19 CNS): 12.8 µM; GI50 (NCI-H522 lung): 2.25 µM; TGI (NCI-H522 lung): 6.95 µM; GI50 (HCT-116 colon): 1.92 µM; TGI (HCT-116 colon): 3.96 µM; GI50 (SNB-75 CNS): 8.43 µM; TGI (SNB-75 CNS): 21.8 µM; GI50 (MCF7 breast): 0.456 µM; TGI (MCF7 breast): 4.38 µM; GI50 (NCI-H23 lung): 2.82 µM; TGI (NCI-H23 lung): 11.9 µM; GI50 (T-47D breast): 1.29 µM; TGI (T-47D breast): 3.65 µM; GI50 (EKVX NSCLC): 4.16 µM; TGI (EKVX NSCLC): 16.9 µM; GI50 (SF-268 CNS): 2.55 µM; TGI (SF-268 CNS): 8.13 µM; GI50 (NCI-H226 lung): 3.48 µM; TGI (NCI-H226 lung): 16.3 µM; GI50 (HCC-2998 colon): 1.84 µM; TGI (HCC-2998 colon): 3.42 µM; GI50 (SN12C renal): 2.41 µM; TGI (SN12C renal): 6.1 µM; GI50 (KM12 colon): 1.81 µM; TGI (KM12 colon): 4.24 µM; GI50 (SK-OV-3 ovarian): 11.1 µM; TGI (SK-OV-3 ovarian): 23.1 µM; GI50 (SF-539 CNS): 2.12 µM; TGI (SF-539 CNS): 4.93 µM; GI50 (786-0 renal): 1.66 µM; TGI (786-0 renal): 3.24 µM; GI50 (MOLT-4 leukemia): 2.59 µM; TGI (MOLT-4 leukemia): 8.35 µM; GI50 (U251 CNS): 1.85 µM; TGI (U251 CNS): 3.74 µM; GI50 (HT29 colon): 1.9 µM; TGI (HT29 colon): 4.65 µM; GI50 (OVCAR-8 ovarian): 3.43 µM; TGI (OVCAR-8 ovarian): 12.8 µM; GI50 (M14 melanoma): 2.98 µM; TGI (M14 melanoma): 11.3 µM; GI50 (CAKI-1 renal): 7 µM; TGI (CAKI-1 renal): 20.7 µM; GI50 (HOP-92 NSCLC): 4.07 µM; TGI (HOP-92 NSCLC): 15.5 µM; GI50 (SR leukemia): 1.59 µM; TGI (SR leukemia): 7.7 µM; GI50 (HOP-62 NSCLC): 2.72 µM; TGI (HOP-62 NSCLC): 9.03 µM; GI50 (HS 578T breast): 4.11 µM; TGI (HS 578T breast): 34.6 µM; GI50 (A549 NSCLC): 6.63 µM; TGI (A549 NSCLC): 21.8 µM; GI50 (OVCAR-3 ovarian): 1.56 µM; TGI (OVCAR-3 ovarian): 3.08 µM; GI50 (HCT-15 colon): 1.45 µM; TGI (HCT-15 colon): 3.52 µM; GI50 (SW-620 colon): 2.05 µM; TGI (SW-620 colon): 5.04 µM; GI50 (UO-31 renal): 1.56 µM; TGI (UO-31 renal): 3.2 µM; GI50 (MALME-3M melanoma): 12.4 µM; TGI (MALME-3M melanoma): 26.5 µM; GI50 (SK-MEL-5 melanoma): 4.11 µM; TGI (SK-MEL-5 melanoma): 14.6 µM; GI50 (LOX IMVI melanoma): 0.719 µM; TGI (LOX IMVI melanoma): 2.24 µM; GI50 (HL-60(TB) leukemia): 2.72 µM; TGI (HL-60(TB) leukemia): 7.83 µM; GI50 (BT-549 breast): 2.86 µM; TGI (BT-549 breast): 10.7 µM; GI50 (PC-3 prostate): 2.7 µM; TGI (PC-3 prostate): 9.04 µM; GI50 (CCRF-CEM leukemia): 2.86 µM; TGI (CCRF-CEM leukemia): 13 µM; GI50 (A498 renal): 11.6 µM; TGI (A498 renal): 23.8 µM; GI50 (SK-MEL-2 melanoma): 13.3 µM; TGI (SK-MEL-2 melanoma): 27.1 µM; GI50 (MDA-MB-435): 1.95 µM; TGI (MDA-MB-435): 4.84 µM; GI50 (NCI/ADR-RES ovarian): 3.11 µM; TGI (NCI/ADR-RES ovarian): 17.1 µM; GI50 (OVCAR-4 ovarian): 3.07 µM; TGI (OVCAR-4 ovarian): 15.6 µM; GI50 (UACC-257 melanoma): 13.1 µM; TGI (UACC-257 melanoma): 25.8 µM; GI50 (UACC-62 melanoma): 2.03 µM; TGI (UACC-62 melanoma): 4.58 µM; GI50 (DU-145 prostate): 3.03 µM; TGI (DU-145 prostate): 10.7 µM
